# Experimental data reported in publication PMC7615700, “Is the ADP ribose site of the Chikungunya virus NSP3 Macro domain a target for antiviral approaches?” (Acta tropica, 2020).
# What was measured:
# CHIKV = settings: cited from earlier work; for in vitro anti-CHIKV activity: by inhibiting RNA production and viral protein expression, ref Lani et al., 2016
# [1] = system: CHIKV-Fluc SGR (CHIKV subgenomic replicon) in Huh-7 cells; assay: CHIKV-Fluc SGR replication assay (luciferase) in Huh-7 cells; settings: for EC50 / CHIKV %replication 20 uM: Huh-7, CHIKV-Fluc SGR; for EC50: 24 h post treatment; for SI (CC50/EC50): Huh-7; for CHIKV %replication 20 uM: 24 h treatment; for inhibition at 20 µM: Huh-7, read-out: inhibition of CHIKV replication
# [2] = MTT cell viability assay in Huh-7 cells; settings: human
# [3] = decimal comma; ref ZINC15; cited from earlier work
# [4] = system: CHIKV-Fluc SGR in C2C12 cells; assay: CHIKV-Fluc replication assay in C2C12 cells; settings: Chikungunya virus, C2C12, read-out: inhibition of CHIKV replication
# [5] = system: CHIKV-D-Luc SGR in Huh-7 cells; assay: CHIKV-D-Luc SGR dual luciferase replicon assay in Huh-7 cells; settings: Huh-7, non-toxic concentrations
# [6] = Cell viability in RD cells; format: cell-based; settings: human, RD rhabdomyosarcoma cells electroporated with CHIKV-Fluc RNA
# Description: (§1) DMSO was used as non-treated control.
# Huh-7 cells = assay: MTT cell viability assay in Huh-7 cells; settings: 20 μM, Huh-7, MTT
# [7] = system: CHIKV-Fluc SGR in RD cells; assay: CHIKV-Fluc replication assay in RD cells; settings: Chikungunya virus, read-out: inhibition of CHIKV replication
# [8] = Cell viability in C2C12 cells; format: cell-based, murine; settings: mouse, C2C12 myoblast cells electroporated with CHIKV-Fluc RNA
# Description: as §1
smiles,measurement,setting,value
O=c1cc(-c2ccccc2)oc2cc(O)c(O)c(O)c12 [Baicalein],inhibition of virus entry versus replication,"CHIKV; ref Oo et al., 2018",higher inhibition on virus entry than replication
O=C(NCc1cccnc1)c1coc(CN(Cc2ccccc2)Cc2ccc3c(c2)OCO3)n1 [Compound 1C13],EC50,"[1]; Chikungunya virus, Huh-7, 24 h",6.9 µM
same,SI (CC50/EC50),[1],2.6
same,CC50 at 24 h,[2],18.1 µM
O=c1c(O)c(-c2ccc(O)c(O)c2)oc2cc(O)ccc12 [fisetin],in vitro anti-CHIKV activity,CHIKV,showed in vitro anti-CHIKV activity
CC(c1ccccc1)N(Cc1nc(C(=O)NCCN2CCOCC2)co1)Cc1ccc(Cl)cc1Cl (centres unmarked) [Compound 1C5],EC50,"[1]; Chikungunya virus, Huh-7, 24 h",19.8 µM
same,SI (CC50/EC50),[1],1.4
same,CC50 at 24 h,[2],27.5 µM
COc1cccc(CN(Cc2nc(C(=O)NCCN3CCOCC3)co2)C(C)c2ccccc2)c1 (centres unmarked) [Compound 4C5],EC50,"[1]; Chikungunya virus, Huh-7, 24 h",29.3 µM
same,SI (CC50/EC50),[1],1.5
same,CC50 at 24 h,[2],45.2 µM
O=C(NCc1cccnc1)c1coc(CN(Cc2ccoc2)Cc2cccc(C(F)(F)F)c2)n1 [Compound C13],logP ZINC15,[3],"4,81"
same,inhibition at 100 µM,[4],64%
same,Rluc levels (input translation and early replication),[5],significantly decreased
same,CHIKV %replication 20 uM,[1],66%
same,EC50,"[1]; Chikungunya virus, Huh-7, 24 h",11.9 µM
same,inhibition at 20 µM,[1]; Chikungunya virus,66%
same,SI (CC50/EC50),[1],3.2
same,EC50,[1],11.6 µM
same,"viability at 24 h, 100 µM",[6],70%
same,% Toxicity (20μM),Huh-7 cells,None
same,CC50 at 24 h,[2],36.8 µM
same,"viability at 24 h, 20 µM",[2],94%
same,inhibition at 100 µM,[7],95%
same,"viability at 24 h, 100 µM",[8],51%
O=c1c(O)c(-c2ccc(O)c(O)c2)oc2cc(O)c(O)c(O)c12 [quercetagetin],in vitro anti-CHIKV activity,CHIKV,showed in vitro anti-CHIKV activity
CC(c1ccccc1)N(Cc1nc(C(=O)NCCN2CCOCC2)co1)Cc1ccccc1F (centres unmarked) [Compound 3C5],EC50,"[1]; Chikungunya virus, Huh-7, 24 h",26.9 µM
same,SI (CC50/EC50),[1],1.5
same,CC50 at 24 h,[2],40.5 µM
CC(c1ccccc1)N(Cc1cccc(F)c1)Cc1nc(C(=O)NCCN2CCOCC2)co1 (centres unmarked) [Compound C5],inhibition at 100 µM,[4],70%
same,Rluc levels (input translation and early replication),[5],significantly decreased
same,CHIKV %replication 20 uM,[1],53%
same,EC50,"[1]; Chikungunya virus, Huh-7, 24 h",12.7 µM
same,inhibition at 20 µM,[1]; Chikungunya virus,53%
same,SI (CC50/EC50),[1],3.1
same,"viability at 24 h, 100 µM",[6],65%
same,% Toxicity (20μM),Huh-7 cells,None
same,CC50 at 24 h,[2],38.9 µM
same,"viability at 24 h, 20 µM",[2],94%
same,inhibition at 100 µM,[7],100%
same,"viability at 24 h, 100 µM",[8],49%
CC(c1ccccc1)N(Cc1cccc(Cl)c1)Cc1nc(C(=O)NCCN2CCOCC2)co1 (centres unmarked) [Compound 2C5],EC50,"[1]; Chikungunya virus, Huh-7, 24 h",27.3 µM
same,SI (CC50/EC50),[1],1.0
same,CC50 at 24 h,[2],27.4 µM
